Results taken from ChEMBL document CHEMBL5518207, “Structure Guided Discovery of Novel Pan Metallo-β-Lactamase Inhibitors with Improved Gram-Negative Bacterial Cell Penetration” (J Med Chem, 2024).

Columns and labels:
[1] = Inhibition of GST tagged NDM-1 (unknown origin) expressed in Escherichia coli BL21 Star (DE3) competent cells using CCF2-FA as substrate incubated for 2 hrs by fluorescence based analysis
[2] = Inhibition of GST tagged IMP-1 (unknown origin) expressed in Escherichia coli BL21 Star (DE3) competent cells using CCF2-FA as substrate incubated for 2 hrs by fluorescence based analysis
[3] = Inhibition of GST tagged VIM-1 (unknown origin) expressed in Escherichia coli BL21 Star (DE3) competent cells using CCF2-FA as substrate incubated for 2 hrs by fluorescence based analysis
Escherichia coli = assay: Potentiation of imipenem induced antibacterial activity against Escherichia coli CLB30005 harbouring NDM-1 incubated for 18 to 22 hrs in presence of imipenem by spectrophotometer based analysis; format: functional; settings: time 18-22 hrs
Serratia marcescens = assay: Potentiation of imipenem induced antibacterial activity against Serratia marcescens CL5741 harbouring IMP-1 incubated for 18 to 22 hrs imipenem by spectrophotometer based analysis; format: functional; settings: time 18-22 hrs
Klebsiella pneumoniae = assay: Potentiation of imipenem induced antibacterial activity against Klebsiella pneumoniae IHMA599644 harbouring VIM-1 incubated for 18 to 22 hrs imipenem by spectrophotometer based analysis; format: functional; settings: time 18-22 hrs
Pseudomonas aeruginosa [4] = assay: Potentiation of imipenem induced antibacterial activity against isogenic efflux wild type Pseudomonas aeruginosa MB9798 harbouring IMP incubated for 18 to 22 hrs imipenem and beta lactamase inhibitor by spectrophotometer based analysis; format: functional; settings: time 18-22 hrs
Pseudomonas aeruginosa [5] = assay: Potentiation of imipenem induced antibacterial activity against isogenic efflux deleted mutant Pseudomonas aeruginosa MB9799 harbouring IMP incubated for 18 to 22 hrs imipenem and beta lactamase inhibitor by spectrophotometer based analysis; format: functional; settings: time 18-22 hrs
Pseudomonas aeruginosa [6] = assay: Efflux ratio of MITC95 for potentiation of imipenem induced antibacterial activity against isogenic efflux wild type Pseudomonas aeruginosa MB9798 harbouring IMP to MITC95 for potentiation of imipenem induced antibacterial activity against isogenic efflux deleted mutant Pseudomonas aeruginosa MB9799 harbouring IMP; format: functional
[7] = Inhibition of GST tagged VIM-2 (unknown origin) expressed in Escherichia coli BL21 Star (DE3) competent cells using CCF2-FA as substrate incubated for 2 hrs by fluorescence based analysis
Cytochrome P450 3A4 = Cytochrome P450 3A4 (Homo sapiens, UniProt P08684); assay: Inhibition of CYP3A4 (unknown origin); format: ADME
Sequence of Cytochrome P450 3A4 (P08684 whole entry): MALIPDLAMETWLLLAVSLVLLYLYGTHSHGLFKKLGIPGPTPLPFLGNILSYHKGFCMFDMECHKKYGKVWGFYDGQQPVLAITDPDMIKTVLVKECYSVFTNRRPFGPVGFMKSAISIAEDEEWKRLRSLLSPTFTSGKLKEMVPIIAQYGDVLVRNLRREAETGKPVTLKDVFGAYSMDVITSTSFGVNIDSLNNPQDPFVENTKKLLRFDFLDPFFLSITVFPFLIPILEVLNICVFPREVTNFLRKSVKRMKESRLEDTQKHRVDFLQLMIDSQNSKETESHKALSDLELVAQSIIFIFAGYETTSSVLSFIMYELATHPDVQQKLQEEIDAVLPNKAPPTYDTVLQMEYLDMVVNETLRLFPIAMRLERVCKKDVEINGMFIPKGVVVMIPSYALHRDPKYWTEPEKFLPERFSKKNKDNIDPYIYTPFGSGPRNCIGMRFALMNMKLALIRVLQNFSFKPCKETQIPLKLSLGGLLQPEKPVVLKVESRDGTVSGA

Cytochrome P450 2D6 = Cytochrome P450 2D6 (Homo sapiens, UniProt P10635); assay: Inhibition of CYP2D6 (unknown origin); format: ADME
Cytochrome P450 2C8 = molecular target: T1, Cytochrome P450 2C8 (Homo sapiens, UniProt P10632); assay: Inhibition of CYP2C8 (unknown origin); format: ADME
T1 sequence (P10632 whole entry): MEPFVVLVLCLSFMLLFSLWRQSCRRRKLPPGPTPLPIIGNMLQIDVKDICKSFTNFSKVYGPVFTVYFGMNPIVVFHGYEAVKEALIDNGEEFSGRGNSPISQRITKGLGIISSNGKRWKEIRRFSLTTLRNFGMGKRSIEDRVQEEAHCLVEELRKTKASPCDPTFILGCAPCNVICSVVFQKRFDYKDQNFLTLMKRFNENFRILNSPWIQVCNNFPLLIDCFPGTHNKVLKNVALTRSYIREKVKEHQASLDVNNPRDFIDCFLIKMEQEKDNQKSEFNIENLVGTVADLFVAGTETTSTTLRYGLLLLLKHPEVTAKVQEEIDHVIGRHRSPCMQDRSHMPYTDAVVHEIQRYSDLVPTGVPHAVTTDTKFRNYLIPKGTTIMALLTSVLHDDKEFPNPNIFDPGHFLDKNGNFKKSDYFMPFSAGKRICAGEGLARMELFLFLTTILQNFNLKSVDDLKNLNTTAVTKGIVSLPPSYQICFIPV

Cytochrome P450 2C9 = Cytochrome P450 2C9 (Homo sapiens, UniProt P11712); assay: Inhibition of CYP2C9 (unknown origin); format: ADME
Sequence of Cytochrome P450 2C9 (P11712 whole entry): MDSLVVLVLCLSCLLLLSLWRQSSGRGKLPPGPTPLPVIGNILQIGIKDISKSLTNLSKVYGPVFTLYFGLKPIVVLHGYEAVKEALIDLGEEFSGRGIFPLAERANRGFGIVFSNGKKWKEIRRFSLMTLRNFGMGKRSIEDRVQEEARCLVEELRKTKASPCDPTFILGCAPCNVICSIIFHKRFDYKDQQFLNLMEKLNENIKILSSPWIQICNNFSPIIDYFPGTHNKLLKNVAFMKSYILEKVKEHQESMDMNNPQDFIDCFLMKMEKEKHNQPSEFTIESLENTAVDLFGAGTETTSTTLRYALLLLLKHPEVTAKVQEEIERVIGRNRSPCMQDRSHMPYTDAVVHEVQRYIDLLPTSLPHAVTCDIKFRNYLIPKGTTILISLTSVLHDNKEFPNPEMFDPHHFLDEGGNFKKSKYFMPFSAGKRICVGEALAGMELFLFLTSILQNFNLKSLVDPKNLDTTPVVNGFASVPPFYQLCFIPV

[8] = molecular target: Sodium channel protein type 5 subunit alpha (Homo sapiens, UniProt Q14524); assay: Inhibition of NaV 1.5 channel (unknown origin)
Sequence of Sodium channel protein type 5 subunit alpha (Q14524 whole entry): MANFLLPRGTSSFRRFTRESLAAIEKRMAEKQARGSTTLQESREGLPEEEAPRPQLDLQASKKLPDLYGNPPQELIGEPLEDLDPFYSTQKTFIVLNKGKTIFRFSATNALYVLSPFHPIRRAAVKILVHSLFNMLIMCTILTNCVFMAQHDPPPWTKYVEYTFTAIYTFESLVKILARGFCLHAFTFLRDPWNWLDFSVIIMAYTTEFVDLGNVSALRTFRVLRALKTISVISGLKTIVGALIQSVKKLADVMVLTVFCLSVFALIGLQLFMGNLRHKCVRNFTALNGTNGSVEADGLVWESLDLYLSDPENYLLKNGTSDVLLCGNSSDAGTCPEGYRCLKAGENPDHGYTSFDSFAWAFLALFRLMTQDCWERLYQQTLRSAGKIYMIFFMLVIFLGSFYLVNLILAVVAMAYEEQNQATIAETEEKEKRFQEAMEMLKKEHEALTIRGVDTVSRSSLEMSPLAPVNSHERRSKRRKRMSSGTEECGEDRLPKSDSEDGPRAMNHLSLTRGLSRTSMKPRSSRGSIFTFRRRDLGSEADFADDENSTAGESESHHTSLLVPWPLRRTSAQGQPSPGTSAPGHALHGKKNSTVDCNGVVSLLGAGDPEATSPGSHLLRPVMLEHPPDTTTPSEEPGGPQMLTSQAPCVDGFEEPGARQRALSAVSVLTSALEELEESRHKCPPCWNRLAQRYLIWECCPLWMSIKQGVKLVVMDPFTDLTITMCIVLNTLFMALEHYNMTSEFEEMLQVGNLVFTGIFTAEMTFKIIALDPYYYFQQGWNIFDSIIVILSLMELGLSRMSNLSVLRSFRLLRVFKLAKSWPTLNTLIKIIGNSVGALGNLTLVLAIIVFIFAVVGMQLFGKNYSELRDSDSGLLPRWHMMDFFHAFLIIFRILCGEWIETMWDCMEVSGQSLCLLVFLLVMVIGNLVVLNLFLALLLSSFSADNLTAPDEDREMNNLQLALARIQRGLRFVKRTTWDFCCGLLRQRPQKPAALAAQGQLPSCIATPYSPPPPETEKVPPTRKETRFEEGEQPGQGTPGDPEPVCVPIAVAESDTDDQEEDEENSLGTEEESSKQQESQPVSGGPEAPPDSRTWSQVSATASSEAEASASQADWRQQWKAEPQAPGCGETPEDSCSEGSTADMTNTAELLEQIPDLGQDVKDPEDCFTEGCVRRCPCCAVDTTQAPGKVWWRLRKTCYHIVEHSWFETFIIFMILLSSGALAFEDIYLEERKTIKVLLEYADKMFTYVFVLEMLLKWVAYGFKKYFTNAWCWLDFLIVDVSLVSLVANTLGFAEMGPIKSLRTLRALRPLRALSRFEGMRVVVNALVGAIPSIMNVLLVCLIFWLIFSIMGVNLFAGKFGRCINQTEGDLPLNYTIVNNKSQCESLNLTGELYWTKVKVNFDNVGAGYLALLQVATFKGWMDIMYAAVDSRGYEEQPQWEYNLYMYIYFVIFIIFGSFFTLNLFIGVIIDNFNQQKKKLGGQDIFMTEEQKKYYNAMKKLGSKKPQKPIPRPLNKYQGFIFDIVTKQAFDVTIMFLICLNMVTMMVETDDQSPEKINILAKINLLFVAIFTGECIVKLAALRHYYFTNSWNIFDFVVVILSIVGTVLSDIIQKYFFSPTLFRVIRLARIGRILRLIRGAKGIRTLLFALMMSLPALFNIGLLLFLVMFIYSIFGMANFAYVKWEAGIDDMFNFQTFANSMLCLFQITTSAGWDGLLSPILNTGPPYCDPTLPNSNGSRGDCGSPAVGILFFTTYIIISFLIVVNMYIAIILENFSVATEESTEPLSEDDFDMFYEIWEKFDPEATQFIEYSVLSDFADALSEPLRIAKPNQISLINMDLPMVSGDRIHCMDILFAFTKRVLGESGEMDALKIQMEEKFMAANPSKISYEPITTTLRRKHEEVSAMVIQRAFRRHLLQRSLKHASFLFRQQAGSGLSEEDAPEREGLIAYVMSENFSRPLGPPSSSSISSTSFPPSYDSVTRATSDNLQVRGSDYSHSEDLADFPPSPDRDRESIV

[9] = molecular target: Voltage-dependent L-type calcium channel subunit alpha-1C (Homo sapiens, UniProt Q13936); assay: Inhibition of Cav1.2 channel (unknown origin)
[10] = molecular target: Voltage-gated inwardly rectifying potassium channel KCNH2 (Homo sapiens, UniProt Q12809); assay: Inhibition of human ERG; format: toxicity
Sequence of Voltage-gated inwardly rectifying potassium channel KCNH2 (Q12809 whole entry): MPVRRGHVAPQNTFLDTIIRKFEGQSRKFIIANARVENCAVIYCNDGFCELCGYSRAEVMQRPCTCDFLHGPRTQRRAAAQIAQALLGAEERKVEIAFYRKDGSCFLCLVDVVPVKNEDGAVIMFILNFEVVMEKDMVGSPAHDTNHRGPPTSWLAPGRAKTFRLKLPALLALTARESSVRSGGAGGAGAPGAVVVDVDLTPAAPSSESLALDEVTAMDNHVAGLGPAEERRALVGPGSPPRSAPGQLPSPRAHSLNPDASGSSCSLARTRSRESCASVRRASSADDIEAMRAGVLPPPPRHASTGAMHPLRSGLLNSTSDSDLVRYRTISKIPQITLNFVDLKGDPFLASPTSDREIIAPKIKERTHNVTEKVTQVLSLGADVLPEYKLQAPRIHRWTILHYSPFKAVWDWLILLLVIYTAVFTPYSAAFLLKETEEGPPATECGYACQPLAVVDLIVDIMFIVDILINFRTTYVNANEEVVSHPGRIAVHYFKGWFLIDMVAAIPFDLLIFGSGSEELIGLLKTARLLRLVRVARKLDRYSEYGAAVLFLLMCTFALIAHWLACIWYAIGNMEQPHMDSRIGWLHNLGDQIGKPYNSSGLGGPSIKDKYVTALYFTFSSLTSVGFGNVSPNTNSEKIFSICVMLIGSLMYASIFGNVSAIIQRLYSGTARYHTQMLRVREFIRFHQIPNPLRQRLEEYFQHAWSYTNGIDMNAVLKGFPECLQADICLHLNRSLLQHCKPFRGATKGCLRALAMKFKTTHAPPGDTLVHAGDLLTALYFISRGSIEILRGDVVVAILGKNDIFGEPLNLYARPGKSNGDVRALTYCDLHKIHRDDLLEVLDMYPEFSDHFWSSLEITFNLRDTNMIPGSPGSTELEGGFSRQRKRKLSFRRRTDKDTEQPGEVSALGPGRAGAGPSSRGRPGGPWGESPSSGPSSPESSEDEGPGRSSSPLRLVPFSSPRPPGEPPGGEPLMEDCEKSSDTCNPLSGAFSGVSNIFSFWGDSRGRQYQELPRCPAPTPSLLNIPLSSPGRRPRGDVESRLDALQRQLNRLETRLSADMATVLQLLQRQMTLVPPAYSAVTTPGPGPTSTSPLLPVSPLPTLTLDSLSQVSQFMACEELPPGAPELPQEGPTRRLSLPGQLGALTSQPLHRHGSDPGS

[11] = molecular target: Voltage-gated potassium channel, IKs; KCNQ1(Kv7.1)/KCNE1(MinK) (Homo sapiens, UniProt P15382+P51787); assay: Inhibition of KCNQ1/KCNE1 (unknown origin); format: protein-complex assay
Sequence of Voltage-gated potassium channel, IKs; KCNQ1(Kv7.1)/KCNE1(MinK) (P51787 whole entry): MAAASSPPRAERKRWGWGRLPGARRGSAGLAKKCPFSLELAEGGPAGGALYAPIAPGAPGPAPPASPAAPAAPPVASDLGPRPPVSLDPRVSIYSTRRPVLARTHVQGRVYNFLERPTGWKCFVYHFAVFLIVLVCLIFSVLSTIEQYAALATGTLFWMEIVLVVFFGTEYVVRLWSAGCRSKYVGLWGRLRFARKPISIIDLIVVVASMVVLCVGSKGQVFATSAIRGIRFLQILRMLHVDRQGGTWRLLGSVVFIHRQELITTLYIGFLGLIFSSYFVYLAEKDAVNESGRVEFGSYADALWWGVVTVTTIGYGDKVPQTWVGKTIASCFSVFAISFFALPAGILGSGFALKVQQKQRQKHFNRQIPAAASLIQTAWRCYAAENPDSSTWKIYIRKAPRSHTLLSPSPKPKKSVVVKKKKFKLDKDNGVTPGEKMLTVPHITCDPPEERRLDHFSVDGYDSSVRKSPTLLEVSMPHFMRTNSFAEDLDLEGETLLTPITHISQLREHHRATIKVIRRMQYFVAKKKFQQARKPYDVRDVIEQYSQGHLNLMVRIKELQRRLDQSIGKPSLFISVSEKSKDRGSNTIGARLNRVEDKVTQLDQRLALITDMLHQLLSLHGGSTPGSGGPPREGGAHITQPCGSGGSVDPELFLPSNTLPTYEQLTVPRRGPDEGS

[12] = AUC in rat at 1 mg/kg, iv measured after 24 hrs by HPLC-MS analysis; format: ADME, organism-based; settings: in vivo
[13] = Clearance in rat at 1 mg/kg, iv measured after 24 hrs by HPLC-MS analysis; format: ADME, organism-based; settings: in vivo
[14] = Volume of distribution at steady state in rat at 1 mg/kg, iv measured after 24 hrs by HPLC-MS analysis; format: ADME, organism-based; settings: in vivo, read-out: Vdss
[15] = Cmax in rat at 1 mg/kg, iv measured after 24 hrs by HPLC-MS analysis; format: ADME, organism-based; settings: in vivo
[16] = MRT in rat at 1 mg/kg, iv measured after 24 hrs by HPLC-MS analysis; format: ADME, organism-based; settings: in vivo
[17] = Unbound fraction in rat plasma at 1 mg/kg, iv measured after 24 hrs by HPLC-MS analysis; format: ADME, organism-based
[18] = AUC in Beagle dog at 1 mg/kg, iv measured after 24 hrs by HPLC-MS analysis; format: ADME, organism-based, Canis lupus familiaris; settings: in vivo
[19] = Clearance in Beagle dog at 1 mg/kg, iv measured after 24 hrs by HPLC-MS analysis; format: ADME, organism-based, Canis lupus familiaris; settings: in vivo
[20] = Volume of distribution at steady state in Beagle dog at 1 mg/kg, iv measured after 24 hrs by HPLC-MS analysis; format: ADME, organism-based, Canis lupus familiaris; settings: in vivo, read-out: Vdss
[21] = Cmax in Beagle dog at 1 mg/kg, iv measured after 24 hrs by HPLC-MS analysis; format: ADME, organism-based, Canis lupus familiaris; settings: in vivo
[22] = MRT in Beagle dog at 1 mg/kg, iv measured after 24 hrs by HPLC-MS analysis; format: ADME, organism-based, Canis lupus familiaris; settings: in vivo
[23] = Unbound fraction in Beagle dog plasma at 1 mg/kg, iv measured after 24 hrs by HPLC-MS analysis; format: ADME, organism-based, Canis lupus familiaris
[24] = Toxicity in Beagle dog assessed as emesis at 1 mg/kg, iv measured after 24 hrs by HPLC-MS analysis; format: organism-based, Canis lupus familiaris; settings: in vivo
[25] = Toxicity in Beagle dog assessed as appearance of watery eyes at 1 mg/kg, iv measured after 24 hrs by HPLC-MS analysis; format: organism-based, Canis lupus familiaris; settings: in vivo
[26] = Toxicity in Beagle dog assessed as increase in histamine level in plasma at 1 mg/kg, iv measured upto 24 hrs by HPLC-MS analysis; format: organism-based, Canis lupus familiaris; settings: in vivo
[27] = Toxicity in Wistar rat assessed as decrease in mean blood pressure at 30 mg/kg, iv measured after 20 mins; format: organism-based; settings: in vivo
[28] = Cmax in Wistar rat at 30 mg/kg, iv measured after 24 hrs by HPLC-MS analysis; format: ADME, organism-based; settings: in vivo
[29] = Toxicity in Wistar rat assessed as increase in histamine concentration in plasma at 30 mg/kg, iv measured after 24 hrs; format: organism-based; settings: in vivo
[30] = AUC in rat at 5 mg/kg, iv measured after 24 hrs by HPLC-MS analysis; format: ADME, organism-based; settings: in vivo
[31] = Clearance in rat at 5 mg/kg, iv measured after 24 hrs by HPLC-MS analysis; format: ADME, organism-based; settings: in vivo
[32] = Volume of distribution at steady state in rat at 5 mg/kg, iv measured after 24 hrs by HPLC-MS analysis; format: ADME, organism-based; settings: in vivo, read-out: Vdss
[33] = Cmax in rat at 5 mg/kg, iv measured after 24 hrs by HPLC-MS analysis; format: ADME, organism-based; settings: in vivo
[34] = MRT in rat at 5 mg/kg, iv measured after 24 hrs by HPLC-MS analysis; format: ADME, organism-based; settings: in vivo
[35] = Unbound fraction in rat plasma at 5 mg/kg, iv measured after 24 hrs by HPLC-MS analysis; format: ADME, organism-based
[36] = Toxicity in Beagle dog assessed as drug tolerability at 1 mg/kg, iv measured after 24 hrs by HPLC-MS analysis; format: organism-based, Canis lupus familiaris; settings: in vivo
[37] = Toxicity in Wistar rat assessed as decrease in mean blood pressure at 100 mg/kg, iv measured after 20 mins; format: organism-based; settings: in vivo
[38] = Toxicity in Wistar rat assessed as increase in histamine concentration in plasma at 100 mg/kg, iv measured after 24 hrs; format: organism-based; settings: in vivo
[39] = Cmax in Wistar rat at 100 mg/kg, iv measured after 24 hrs by HPLC-MS analysis; format: ADME, organism-based; settings: in vivo
[40] = Cmax in Wistar rat at 5 mg/kg, iv administered as bolus dose measured after 24 hrs by HPLC-MS analysis; format: ADME, organism-based; settings: in vivo
[41] = Cmax in Wistar rat at 90 mg/kg, iv measured after 24 hrs by HPLC-MS analysis; format: ADME, organism-based; settings: in vivo

| SMILES | IC50 [1] [nM] | IC50 [2] [nM] | IC50 [3] [nM] | MITC95 (Escherichia coli) [µM] | MITC95 (Serratia marcescens) [µM] | MITC95 (Klebsiella pneumoniae) [µM] | MITC95 (Pseudomonas aeruginosa [4]) [µM] | MITC95 (Pseudomonas aeruginosa [5]) [µM] | Ratio (Pseudomonas aeruginosa [6]) | IC50 [7] [nM] | IC50 (Cytochrome P450 3A4) [µM] | IC50 (Cytochrome P450 2D6) [µM] | IC50 (Cytochrome P450 2C8) [µM] | IC50 (Cytochrome P450 2C9) [µM] | IC50 [8] [µM] | IC50 [9] [µM] | IC50 [10] [µM] | IC50 [11] [µM] | AUC at 24 h [12] [µM·h] | clearance [13] [mL/min/kg] | other results |
| --- | --- | --- | --- | --- | --- | --- | --- | --- | --- | --- | --- | --- | --- | --- | --- | --- | --- | --- | --- | --- | --- |
| NS(=O)(=O)c1c(CC2CCNCC2)ccc(-c2ccc(C3CCNCC3)cc2)c1-c1nn[nH]n1 | 11 | 24 | 5 | 2 | 3.9 | 2.3 | 4.4 | 0.8 | 6 | 1230 | > 50 | > 50 | > 50 | > 50 | > 30 | > 30 | > 30 | > 30 | 5.5 | 6.4 | Vd [14]: 0.34 L/kg; Cmax [15]: 8.6 µM; MRT [16]: 0.88 h; fraction unbound at 24 h [17]: 0.8; AUC at 24 h [18]: 10.4 µM·h; clearance [19]: 3.5 mL/min/kg; Vd [20]: 0.45 L/kg; Cmax [21]: 15 µM; MRT [22]: 3.2 h; fraction unbound at 24 h [23]: 0.84; Activity [24]: Toxic; Activity [25]: Toxic; Activity [26]: Toxic; Activity [27]: Toxic; Cmax [28]: 459 µM; Activity [29]: Toxic |
| NS(=O)(=O)c1c(C(F)(F)F)ccc(-c2ccc(C3CCN(CC4CNC4)CC3)cc2)c1-c1nnn[nH]1 | 2.3 | 0.4 | 3.8 | 0.6 | 1.6 | 7.8 | 4.7 | 0.39 | 12 | 62 | > 50 | > 50 | > 50 | > 50 | > 30 | > 30 | > 30 | > 30 | – | – | AUC at 24 h [30]: 9.6 µM·h; clearance [31]: 19 mL/min/kg; Vd [32]: 0.73 L/kg; Cmax [33]: 33.1 µM; MRT [34]: 42.6 min; fraction unbound at 24 h [35]: 0.35; Cmax [21]: 13.8 µM; Activity [36]: Non-Toxic; Activity [37]: Toxic; Activity [38]: Toxic; Cmax [39]: 726 µM |
| NS(=O)(=O)c1c(CC2CNC2)ccc(-c2ccc(C3CCNCC3)cc2)c1-c1nn[nH]n1 | 11 | 26 | 7 | 0.8 | 1.6 | 1.6 | 3.1 | 0.8 | 4 | – | – | – | – | – | – | – | – | – | – | – | Cmax [40]: 45 µM |
| Nc1ccc(-c2ccc(CC3CCNCC3)c(S(N)(=O)=O)c2-c2nn[nH]n2)cn1 | 12 | 164 | 25 | 0.6 | 6.3 | 4.2 | 50 | 12.5 | 4 | 140 | – | – | – | – | – | – | – | – | 11.7 | 3.5 | Vd [14]: 0.25 L/kg; Cmax [15]: 16.3 µM; MRT [16]: 1.21 h; fraction unbound at 24 h [17]: 0.47; Cmax [41]: 791 µM |
